Results on 22 molecules are retold here after US20260365654A1, “PRMT5 INHIBITOR AND USE THEREOF” (SHANGHAI APEIRON THERAPEUTICS COMPANY LIMITED, priority 2022, published 2026).

For assay [1], the system named is HCT-116 MTAP(−/−)deleted cells. Put plainly: Inhibitory activity of compounds on the proliferation of HCT-116 MTAP(−/−)deleted cells. The assay is classed as cell-based. As to conditions: Cell-Titer Glo, 8 d, 0-10,000 nM, 3-fold dilution, 10 points, 0.1% DMSO. The text has this:
Test case 1: Inhibitory activity of compounds on the proliferation of HCT-116 MTAP(−/−)deleted cells Materials and cells: HCT-116 MTAP(−/−)deleted cells were purchased from Botron Healthcare (China); RPMI-1640 medium, fetal bovine serum and penicillin-streptomycin were purchased from Thermo Fisher (United States); 384-well plates were purchased from PerkinElmer (United States); Cell-Titer Glo kit was purchased from Promega (United States).
Cell culture: HCT116 MTAP(−/−)deleted cells were cultured with RPMI 1640 medium containing 10% fetal bovine serum +1% penicillin-streptomycin at 37 °C in 5% CO2. Only cells in the logarithmic growth phase could be used for the test.
Test of inhibitory activity on cell proliferation: The Cell-Titer Glo kit was used to test the proliferation inhibitory activity of the compounds on HCT-116 MTAP(−/−)deleted cells. The cell concentration was adjusted, It was inoculated at 40 μL per well into a 384-well plate and incubated overnight at 37 °C in 5% CO2. 40 μL of the compound was added to each well to reach a final concentration of 0-10,000 nM (starting concentration 10,000 nM, 3-fold dilution, 10 points), and the cell plate with 0.1% DMSO content was incubated at 37 °C and 5% CO2 for 8 d. 40 μL of Cell-Titer Glo reagent was added to test cell viability.

For assay [2], the system named is HCT-116 wild-type cells. The experiment in a line: Proliferation inhibitory activity of compound on HCT-116 Wild Type cells. It counts as cell-based. The following applies: Cell-Titer Glo, 8 d, 0-10,000 nM, 2-fold dilution, 10 points, 0.1% DMSO. The protocol:
Test case 2: Test on proliferation inhibitory activity of compound on HCT-116 Wild Type cells Materials and cells: HCT-116 wild-type cells were purchased from Botron Healthcare (China); RPMI-1640 medium, fetal bovine serum and penicillin-streptomycin were purchased from Thermo Fisher (United States); 384-well plates were purchased from PerkinElmer (United States); Cell-Titer Glo kit was purchased from Promega (United States).
Cell culture: HCT-116 wild-type cells were cultured with a RPMI-1640 medium containing […]+1% penicillin-streptomycin at 37 °C in 5% CO2. Only cells in the logarithmic growth phase could be used for the test.
Test of cell proliferation activity: Cell-Titer Glo kit was used to test the proliferation inhibitory activity of the compound on HCT-116 wild-type cells. The cell concentration was adjusted, 40 μL per well was inoculated into a 384-well plate and incubated overnight at 37 °C in […]. 40 nL of the compound was added to each well to reach a final concentration of 0-10,000 nM (starting concentration 10,000 nM, 2-fold dilution, 10 points), and the cell plate with 0.1% DMSO content was incubated at 37 °C and […] for 8 d. 40 μL of Cell-Titer Glo reagent was added to test cell viability.

Consider `Nc1nc2cc(F)c(C(=O)N3CC(c4ccc(C(F)(F)F)cn4)C3)cc2n2cncc12` [Example 10], for which the IC50 (in general, the concentration needed to halve the response being measured) is 795 nM in assay [1] (Homo sapiens, 192 h) and greater than 10000 nM in assay [2] (Homo sapiens, 192 h).

Take `Nc1nc2cc(F)c(C(=O)N3CCO[C@@H](c4ccc(C(F)(F)F)cc4)C3)cc2n2cncc12` [Example 15, (S)-(4-amino-7-fluoroimidazo[1,5-a]quinoxalin-8-yl)(2-(4-(trifluoromethyl)phenyl)morpholinyl)methanone]: the IC50 in assay [1] (Homo sapiens, 192 h) was 933 nM; in assay [2] (Homo sapiens, 192 h), greater than 10000 nM.

In the case of `Nc1nc2ccc(C(=O)N3CCCC[C@@H]3c3ccc(F)cc3)cc2n2cccc12` [Example 1, (R)-(4-aminopyrrolo[1,2-a]quinoxalin-8-yl)(2-(4-fluorophenyl)piperidin-1-yl)methanone], the half-inhibitory concentration (IC50) amounted to 3880 nM in assay [1] (Homo sapiens, 192 h) and 10800 nM in assay [2] (Homo sapiens, 192 h).

Regarding `Nc1nc2cc(Cl)c(C(=O)N3CCCC[C@@H]3c3ccc(F)cc3)cc2n2cncc12` [Example 6, (2R)-2-(4-fluorophenyl)piperidyl4-amino-7-chloro(10-hydroimidazo[1,5-a]quinoxalin-8-yl)one], the IC50 was 28.8 nM in assay [1] (Homo sapiens, 192 h) and 2720 nM in assay [2] (Homo sapiens, 192 h).

Turning to `Nc1nc2cc(F)c(C(=O)N3CCC[C@@H](c4ccc(C(F)(F)F)cc4)C3)cc2n2cncc12` [Example 13B], the IC50 was greater than 3000 nM in assay [1] (Homo sapiens, 192 h) and greater than 10000 nM in assay [2] (Homo sapiens, 192 h).

For the molecule `Nc1nc2cc(F)c(C(=O)N3CCC[C@H]3c3ccc(C(F)(F)F)cc3)cc2n2cncc12` [Example 17, (S)-(4-amino-7-fluorimidazo[1,5-a]quinoxalin-8-yl)(2-(4-(trifluoromethyl)phenyl)pyrrolidin-1-yl)methanone], the IC50 in assay [1] (Homo sapiens, 192 h) was greater than 3000 nM; in assay [2] (Homo sapiens, 192 h) it was greater than 10000 nM.

On to `Nc1nc2cc(F)c(C(=O)N3CCC[C@H](c4ccc(C(F)(F)F)cc4)C3)cc2n2cncc12` [Example 13A], for which the IC50 in assay [1] (Homo sapiens, 192 h) is 516 nM; in assay [2] (Homo sapiens, 192 h) it was greater than 10000 nM.

`C[C@@H]1COC[C@H](c2ccc(C(F)(F)F)cc2)N1C(=O)c1cc2c(cc1F)nc(N)c1cncn12` [Example 12, (4-amino-7-fluorimidazo[1,5-a]quinoxalin-8-yl)((3R,5S)-3-methyl-5-(4-(trifluoromethyl)phenyl)morpholinyl)methanone]: the IC50 in assay [1] (Homo sapiens, 192 h) came to 3.2 nM; in assay [2] (Homo sapiens, 192 h) it was 91.1 nM.

Consider `Nc1nc2cc(Cl)c(C(=O)N3CCOCC3c3ccc(C(F)(F)F)cc3)cc2n2cncc12` (stereo in doubt) [Example 4A, (3R)-3-[4-(trifluoromethyl)phenyl]morpholin-4-yl 4-amino-7-chloro(10-hydroimidazo[1,5-a]quinoxalin-8-yl)one], for which the IC50 came out at 6.5 nM in assay [1] (Homo sapiens, 192 h) and 512 nM in assay [2] (Homo sapiens, 192 h).

For `Nc1nc2ccc(C(=O)N3CCCCC3c3cnc4cccnc4c3)cc2n2cncc12` (centres unmarked) [Example 18], the IC50 in assay [1] (Homo sapiens, 192 h) is 1400 nM; in assay [2] (Homo sapiens, 192 h), greater than 10000 nM.

Turning to `Nc1nc2cc(F)c(C(=O)N3CCCC(c4ccc(C(F)(F)F)cc4)C3)cc2n2cncc12` (centres unmarked) [Example 13, (4-amino-7-fluimidazo[1,5-a]quinoxalin-8-yl)(3-(4-(trifluoromethyl)phenyl)piperidin-1-yl)methanone], the IC50 in assay [1] (Homo sapiens, 192 h) is 458 nM; in assay [2] (Homo sapiens, 192 h) it was 4180 nM.

Consider `Nc1nc2cc(F)c(C(=O)N3CCC(c4ccc(C(F)(F)F)cn4)C3)cc2n2cncc12` (centres unmarked) [Example 8, (4-amino-7-fluorimidazo[1,5-a]quinoxalin-8-yl)(3-(5-(trifluoromethyl)pyridin-2-yl)pyrrolidin-1-yl)methanone], for which the IC50 in assay [1] (Homo sapiens, 192 h) is 396 nM; in assay [2] (Homo sapiens, 192 h) it was greater than 10000 nM.

Turning to `Nc1nc2ccc(C(=O)N3CCCCC3c3ccc(Oc4ccc(F)cc4)cc3)cc2n2cncc12` (centres unmarked) [Example 19], the IC50 in assay [1] (Homo sapiens, 192 h) was 472 nM; in assay [2] (Homo sapiens, 192 h), 6380 nM.

With `Nc1nc2ccc(C(=O)N3CCCCC3c3ccc(C(F)(F)F)cn3)cc2n2cncc12` (centres unmarked) [Example 21], the IC50 was 80.4 nM in assay [1] and greater than 10000 nM in assay [2].

Regarding `Nc1nc2cc(F)c(C(=O)N3CCC[C@@H]3c3ccc(C(F)(F)F)cc3)cc2n2cncc12` [Example 16, (R)-(4-amino-7-fluorimidazo[1,5-a]quinoxalin-8-yl)(2-(4-(trifluoromethyl)phenyl)pyrrolidin-1-yl)methanone], the IC50 in assay [1] (Homo sapiens, 192 h) was 1300 nM; in assay [2] (Homo sapiens, 192 h) it was greater than 10000 nM.

Consider `Nc1nc2ccc(C(=O)N3CCCCC3c3ccc(OC(F)(F)F)cc3)cc2n2cncc12` (centres unmarked) [Example 22, (4-aminoimidazo[1,5-a]quinoxalin-8-yl)2-(4-(trifluoromethoxy)phenyl)piperidin-1-yl ketone], for which the results for the IC50 in assay [1] and in assay [2] were 45.2 nM and 8130 nM, respectively.

As for `Nc1nc2cc(Cl)c(C(=O)N3CCOCC3c3ccc(C(F)(F)F)cc3)cc2n2cncc12` (stereo in doubt) [Example 4B, (3S)-3-[4-(trifluoromethyl)phenyl]morpholin-4-yl 4-amino-7-chloro(10-hydroimidazo[1,5-a]quinoxalin-8-yl)one], the IC50 in assay [1] (Homo sapiens, 192 h) came to 2780 nM; in assay [2] (Homo sapiens, 192 h) it was 6520 nM.

Take `Nc1nc2ccc(C(=O)N3CCCCC3c3ccc4ccccc4n3)cc2n2cncc12` (centres unmarked) [Example 24]: the IC50 in assay [1] (Homo sapiens, 192 h) is 242 nM; in assay [2] (Homo sapiens, 192 h) it was greater than 10000 nM.

For the molecule `Nc1nc2ccc(C(=O)N3CCCC[C@@H]3c3ccc(F)cc3)cc2n2cncc12` [Example 14, (R)-(4-aminoimidazo[1,5-a]quinoxalin-8-yl)(2-(4-fluorophenyl)piperidin-1-yl)methanone], the IC50 in assay [1] (Homo sapiens, 192 h) was 671 nM; in assay [2] (Homo sapiens, 192 h) it was greater than 10000 nM.

For `Cn1ncc2cc(C3CCCCN3C(=O)c3ccc4nc(N)c5cncn5c4c3)cnc21` (centres unmarked) [Example 23, (4-aminoimidazo[1,5-a]quinoxalin-8-yl) 2-(1-methylpyrazolo[3,4-b]pyridin-5-yl)piperidin-1-methanone], the results for the IC50 in assay [1] and in assay [2] were 741 nM and greater than 10000 nM, respectively.

Turning to `Nc1nc2cc(F)c(C(=O)N3CCCC[C@@H]3c3ccc(F)cc3)cc2n2cncc12` [Example 7, (R)-(4-amino-7-fluoroimidazo[1,5-a]quinoxalin-8-yl)(2-(4-fluorophenyl)piperidin-1-yl)methanone], the 50% inhibitory concentration (IC50) was 24.3 nM in assay [1] (Homo sapiens, 192 h) and 1690 nM in assay [2] (Homo sapiens, 192 h).

In the case of “(4-amino-7-fluimidazo[1,5-a]quinoxalin-8-yl)2-(1-methylpyr azolo[3,4-b]pyridin-5-yl)piperidin-1-methanone [Example 20]”, the results for the IC50 in assay [1] and in assay [2] were 83.3 nM and greater than 10000 nM, respectively.
